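All cell lines were grown in 96-well plates and treated with compound for 48 hours. GI50 marks 50% less growth.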 The source made the active and inactive calls. Cut-off read from the data, not from the text of the source: active = GI50 up to about 1.1 µM and inactive = higher.
Tests used:
Assay in all cases: inhibition of tumour cell growth, NCI panel, 48 h
DLD-1 = tested on: DLD-1
DMS-114 = tested on: DMS-114
DMS-273 = tested on: DMS-273
KM-20L2 = tested on: KM-20L2
M19-MEL = tested on: M19-MEL
RXF 631 = tested on: RXF 631
SNB-78 = tested on: SNB-78
XF498 = tested on: XF498
HOP-18 = tested on: HOP-18

Measured: GI50

COc1ccccc1NC(=O)CC(=O)NNCC(=O)Nc1nnc(-c2ccccc2)o1
inactive: DLD-1 > 100 µM | DMS-114 > 100 µM | DMS-273 > 100 µM | KM-20L2 > 100 µM | M19-MEL > 100 µM | RXF 631 > 100 µM | SNB-78 > 100 µM | XF498 > 100 µM

O=C(/C=C1/NC(=O)CS1)Nc1ccccc1
inactive: DLD-1 > 100 µM | DMS-114 > 100 µM | DMS-273 > 100 µM | HOP-18 > 100 µM | KM-20L2 > 100 µM | M19-MEL > 100 µM | RXF 631 > 100 µM | SNB-78 > 100 µM | XF498 > 100 µM

CC(=O)NC(ON1C(=O)COc2ccccc21)C(Cl)(Cl)Cl (stereo unspecified)
inactive: DLD-1 > 100 µM | DMS-273 > 100 µM | KM-20L2 > 100 µM | SNB-78 > 100 µM | XF498 > 100 µM

Nc1ccc(C(=O)N/C(=C\c2cccc([N+](=O)[O-])c2)c2nc3cc(Cl)ccc3[nH]2)cc1
inactive: DLD-1 > 100 µM | DMS-114 > 100 µM | KM-20L2 17 µM | M19-MEL > 100 µM | RXF 631 63 µM | SNB-78 > 100 µM | XF498 43.1 µM

C=CCN(N=O)C(=O)N(CCCC(NC(C)=O)C(=O)NCc1ccccc1)Cc1ccccc1 (stereo unspecified)
inactive: DMS-114 36.9 µM | DMS-273 95.7 µM | KM-20L2 42.2 µM | M19-MEL 44.4 µM | RXF 631 47.2 µM | XF498 36.3 µM

CC1(C)OC(COCCOCCCCCO)C(COCCOCCCCCO)O1 (stereo unspecified)
inactive: DLD-1 > 100 µM | DMS-114 > 100 µM | DMS-273 > 100 µM | HOP-18 > 100 µM | KM-20L2 > 100 µM | M19-MEL > 100 µM | RXF 631 > 100 µM | SNB-78 > 100 µM

Cc1ccccc1NC(=O)Cc1nc2ccccc2s1
inactive: DLD-1 7.08 µM | DMS-273 17.6 µM | HOP-18 1.72 µM | KM-20L2 18.4 µM | RXF 631 16 µM | SNB-78 18.6 µM | XF498 14.5 µM

CCOc1ccc(/N=C/c2cccc3cccnc23)cc1
inactive: DLD-1 51.4 µM | DMS-114 88.7 µM | DMS-273 81.3 µM | HOP-18 > 100 µM | KM-20L2 > 100 µM | M19-MEL > 100 µM | RXF 631 > 100 µM | SNB-78 > 100 µM | XF498 > 100 µM

CCOc1ccc(NC(=O)CCC(=O)NN)cc1
inactive: DLD-1 > 100 µM | DMS-114 > 100 µM | DMS-273 > 100 µM | HOP-18 > 100 µM | KM-20L2 > 100 µM | SNB-78 > 100 µM | XF498 31.7 µM

COc1ccc2c(c1)[n+]([O-])c(-c1ccc(Br)cc1)c(N)[n+]2[O-]
inactive: DLD-1 44.6 µM | DMS-114 23.1 µM | DMS-273 24.1 µM | HOP-18 > 100 µM | KM-20L2 34.5 µM | M19-MEL 44.3 µM | SNB-78 54.6 µM | XF498 68.4 µM

COc1ccc(NC(=O)NS(=O)(=O)c2ccc(C)cc2)nn1
inactive: DLD-1 > 100 µM | DMS-114 > 100 µM | DMS-273 > 100 µM | HOP-18 > 100 µM | KM-20L2 > 100 µM | M19-MEL > 100 µM | RXF 631 > 100 µM | SNB-78 > 100 µM | XF498 > 100 µM

COc1ccc(C(C#N)NNC(=O)Cc2ccccc2)cc1OC (stereo unspecified)
inactive: DLD-1 > 100 µM | DMS-114 > 100 µM | DMS-273 > 100 µM | HOP-18 > 100 µM | M19-MEL > 100 µM | SNB-78 > 100 µM

C=CCN(N=O)C(=O)N(CCC)CCCC(NC(C)=O)C(=O)NCc1ccccc1 (stereo unspecified)
inactive: DMS-114 > 100 µM | DMS-273 > 100 µM | HOP-18 > 100 µM | KM-20L2 > 100 µM | M19-MEL > 100 µM | RXF 631 > 100 µM | XF498 > 100 µM

COC(=O)/C(=N/NC(=O)C[N+](C)(C)C)C(C(=O)OC)C(=O)C(=O)Nc1ccc(F)cc1 (stereo unspecified)
inactive: DLD-1 > 100 µM | DMS-114 > 100 µM | DMS-273 > 100 µM | HOP-18 > 100 µM | KM-20L2 > 100 µM | M19-MEL > 100 µM | RXF 631 > 100 µM | SNB-78 > 100 µM

COC(=O)c1ccc(C(=O)OC)c2nc3cc(C)ccc3nc12
inactive: DLD-1 > 100 µM | DMS-114 > 100 µM | DMS-273 > 100 µM | HOP-18 > 100 µM | KM-20L2 > 100 µM | RXF 631 > 100 µM | SNB-78 > 100 µM | XF498 > 100 µM

CCOC(=O)C(=O)Nc1c(C)cccc1C(C)C
inactive: DLD-1 > 100 µM | DMS-114 > 100 µM | DMS-273 > 100 µM | HOP-18 > 100 µM | KM-20L2 > 100 µM | M19-MEL > 100 µM | RXF 631 > 100 µM | SNB-78 > 100 µM | XF498 > 100 µM

CC1CC(c2ccccc2)=Nc2ccccc2S1(=O)=O (stereo unspecified)
inactive: DLD-1 15.1 µM | DMS-114 20.9 µM | DMS-273 20.1 µM | HOP-18 13.9 µM | KM-20L2 17.8 µM | M19-MEL 14.9 µM | RXF 631 > 10 µM | SNB-78 15 µM | XF498 18.6 µM

Cc1ccc(S(=O)(=O)SCc2ccccc2)cc1
inactive: DLD-1 5.31 µM | DMS-114 22.2 µM | DMS-273 28.1 µM | HOP-18 > 80.4 µM | KM-20L2 22.9 µM | M19-MEL 33.7 µM | SNB-78 18.5 µM | XF498 35.5 µM

CN(C)CCNC(=O)c1ccccc1Nc1c(Cl)cccc1Cl
inactive: DLD-1 18.2 µM | DMS-273 16.9 µM | KM-20L2 10.9 µM | M19-MEL 11.1 µM | SNB-78 16.4 µM | XF498 9.66 µM

COC(=O)/C(=N\NC(N)=O)C(C(=O)C=C(C)C)C(=O)C(=O)Nc1ccc(Cl)c(Cl)c1 (stereo unspecified)
inactive: DLD-1 > 100 µM | DMS-114 > 100 µM | DMS-273 > 100 µM | HOP-18 > 100 µM | KM-20L2 > 100 µM | M19-MEL > 100 µM | RXF 631 > 100 µM | SNB-78 > 100 µM | XF498 > 100 µM

O=C(O)CNCc1c2ccccc2nc2ccccc12
inactive: DLD-1 33.3 µM | DMS-114 20.7 µM | DMS-273 40.2 µM | HOP-18 > 100 µM | KM-20L2 29.3 µM | M19-MEL 54.7 µM | SNB-78 54 µM | XF498 28.8 µM

CCCCCC(=O)OCCOCCOCCOCCOCCOCc1ccccc1
inactive: DLD-1 > 100 µM | DMS-114 > 100 µM | DMS-273 > 100 µM | HOP-18 > 100 µM | KM-20L2 > 100 µM | SNB-78 > 100 µM | XF498 > 100 µM

CC(C)N1C(C)[C@@H](c2ccccc2)O[P@]1(=O)CC1=CCCCC1 (stereo partly specified)
inactive: DLD-1 > 100 µM | DMS-114 49.5 µM | HOP-18 > 100 µM | KM-20L2 94.8 µM | M19-MEL > 100 µM | XF498 > 100 µM

C[C@]12CCC[C@H](OC=O)C1(O)C[C@H](C(=O)O)CC2 (stereo partly specified)
inactive: DLD-1 > 100 µM | DMS-114 > 100 µM | DMS-273 > 100 µM | HOP-18 > 100 µM | KM-20L2 19 µM | M19-MEL > 100 µM | RXF 631 > 100 µM | SNB-78 > 100 µM | XF498 > 100 µM

c1ccc2c(c1)Sc1ccccc1N2C1CN2CCC1CC2 (stereo unspecified)
inactive: DLD-1 15.8 µM | DMS-114 17.9 µM | DMS-273 16.4 µM | HOP-18 18.2 µM | KM-20L2 15.2 µM | M19-MEL 16 µM | SNB-78 14.4 µM | XF498 13.9 µM

Source: ChEMBL document CHEMBL1201862, “PubChem BioAssay data set” (2004)
